According to patent US20250171437A1 (Agios Pharmaceuticals,Inc., priority 2022, published 2025):

biological target: T1, human PAH with the R408W mutation (A375 R408W cells) (Homo sapiens, UniProt P00439, R408W); test: Cell Based Phenylalanine Flux Assay; settings: A375 R408W cells; 24 hrs with compound, then 20 μM sepiapterin and 800 μM 13C9,15N-Phenylalanine for 4 hours; 13C-Tyrosine by LC-MS; average where tested multiple times
T1 construct: expressed in transfected cells
T1 sequence (P00439 1-452 R408W): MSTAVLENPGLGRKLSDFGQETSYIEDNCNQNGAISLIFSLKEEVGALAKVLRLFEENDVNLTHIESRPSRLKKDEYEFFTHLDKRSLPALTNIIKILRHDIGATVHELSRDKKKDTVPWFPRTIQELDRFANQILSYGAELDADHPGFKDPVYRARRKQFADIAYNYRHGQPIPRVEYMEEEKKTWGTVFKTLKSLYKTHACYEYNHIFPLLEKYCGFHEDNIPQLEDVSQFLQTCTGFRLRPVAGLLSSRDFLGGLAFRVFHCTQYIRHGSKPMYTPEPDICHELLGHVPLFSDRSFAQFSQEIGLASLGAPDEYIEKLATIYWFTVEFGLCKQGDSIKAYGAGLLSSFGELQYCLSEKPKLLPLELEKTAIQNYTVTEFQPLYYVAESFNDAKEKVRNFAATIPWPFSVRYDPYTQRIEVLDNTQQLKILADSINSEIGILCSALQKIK
Method in brief: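 Stable R408W PAH A375 cells: 24 h compound pretreatment in duplicate, then 4 h with 800 μM isotope-labelled Phe and 20 μM sepiapterin. Labelled Tyr output by LC-MS; AC50 averaged where repeated.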

SMILES	AC50 [nM]
O=C(c1ocnc1C(F)(F)F)N1CCc2[nH]cnc2[C@H]1c1nc2ccc(F)cc2o1 [Example 161, (S)-(4-(6-fluorobenzo[d]oxazol-2-yl)-6,7-dihydro-1H-imidazo[4,5-c]pyridin-5(4H)-yl)(4-(trifluoromethyl)oxazol-5-yl)methanone]	≤ 500
Cn1cc(-c2nnc(C(=O)N3CCc4[nH]cnc4[C@H]3c3nc4cc(F)ccc4o3)o2)c(C(F)(F)F)n1 [Example 118, (S)-(4-(5-fluorobenzo[d]oxazol-2-yl)-6,7-dihydro-1H-imidazo[4,5-c]pyridin-5(4H)-yl)(5-(1-methyl-3-(trifluoromethyl)-1H-pyrazol-4-yl)-1,3,4-oxadiazol-2-yl)methanone]	≤ 500
O=C(c1nnc(-c2c(F)cccc2F)o1)N1CCc2[nH]cnc2[C@@H]1c1nc2cc(F)ccc2o1 [Example 26, (R)-(5-(2,6-difluorophenyl)-1,3,4-oxadiazol-2-yl)(4-(5-fluorobenzo[d]oxazol-2-yl)-6,7-dihydro-1H-imidazo[4,5-c]pyridin-5(4H)-yl)methanone]	500 to 1000
CN(C)CCc1cn2ncc(C(=O)N3CCc4[nH]cnc4[C@H]3c3nc4cc(F)ccc4o3)c2cc1Cl [Example 79, (S)-(5-chloro-6-(2-(dimethylamino)ethyl)pyrazolo[1,5-a]pyridin-3-yl)(4-(5-fluorobenzo[d]oxazol-2-yl)-6,7-dihydro-1H-imidazo[4,5-c]pyridin-5(4H)-yl)methanone]	500 to 1000
O=C(c1oc(-c2ccccn2)nc1C(F)F)N1CCc2[nH]cnc2[C@@H]1c1nc2cc(F)ccc2o1 [Example 86, (R)-(4-(difluoromethyl)-2-(pyridin-2-yl)oxazol-5-yl)(4-(5-fluorobenzo[d]oxazol-2-yl)-6,7-dihydro-1H-imidazo[4,5-c]pyridin-5(4H)-yl)methanone]	1000 to 5000

Continued, values first:

AC50 [nM]	SMILES
500 to 1000	Cc1ccc2oc([C@@H]3c4nc[nH]c4CCN3C(=O)c3ncnn3C)nc2c1 [Example 745, (S)-(1-methyl-1H-1,2,4-triazol-5-yl)(4-(5-methylbenzo[d]oxazol-2-yl)-6,7-dihydro-1H-imidazo[4,5-c]pyridin-5(4H)-yl)methanone]
≤ 500	Cn1ccc(-c2nnc(C(=O)N3CCc4[nH]cnc4[C@H]3c3nc4c(F)cccc4o3)o2)n1 [Example 379, (S)-(4-(4-fluorobenzo[d]oxazol-2-yl)-1,4,6,7-tetrahydro-5H-imidazo[4,5-c]pyridin-5-yl)(5-(1-methyl-1H-pyrazol-3-yl)-1,3,4-oxadiazol-2-yl)methanone]
500 to 1000	CC(C)(O)c1nc(C(F)F)c(C(=O)N2CCc3[nH]cnc3[C@H]2c2nc3cc(Cl)ccc3o2)o1 [Example 375, (S)-(4-(5-chlorobenzo[d]oxazol-2-yl)-6,7-dihydro-1H-imidazo[4,5-c]pyridin-5(4H)-yl)(4-(difluoromethyl)-2-(2-hydroxypropan-2-yl)oxazol-5-yl)methanone]
≥ 5000	Cc1nc([C@@H](C)O)oc1C(=O)N1CCc2[nH]cnc2[C@@H]1c1nc2c(F)cccc2o1 [Example 209, ((R)-4-(4-fluorobenzo[d]oxazol-2-yl)-6,7-dihydro-1H-imidazo[4,5-c]pyridin-5(4H)-yl)(2-((R)-1-hydroxyethyl)-4-methyloxazol-5-yl)methanone]
≤ 500	Cn1cncc1-c1nc(C(F)F)c(C(=O)N2CCc3[nH]cnc3[C@H]2c2nc3cccc(F)c3o2)o1 [Example 692, (S)-(4-(difluoromethyl)-2-(1-methyl-1H-imidazol-5-yl)oxazol-5-yl)(4-(7-fluorobenzo[d]oxazol-2-yl)-6,7-dihydro-1H-imidazo[4,5-c]pyridin-5(4H)-yl)methanone]
1000 to 5000	CC(F)(F)c1ncoc1C(=O)N1CCc2[nH]cnc2[C@@H]1c1nc2c(F)cccc2o1 [Example 652, (R)-(4-(1,1-difluoroethyl)oxazol-5-yl)(4-(4-fluorobenzo[d]oxazol-2-yl)-6,7-dihydro-1H-imidazo[4,5-c]pyridin-5(4H)-yl)methanone]
500 to 1000	O=C(c1ocnc1CF)N1CCc2[nH]cnc2[C@H]1c1nc2cc(F)ccc2o1 [Example 179, (S)-(4-(5-fluorobenzo[d]oxazol-2-yl)-6,7-dihydro-1H-imidazo[4,5-c]pyridin-5(4H)-yl)(4-(fluoromethyl)oxazol-5-yl)methanone]
≤ 500	Cc1cccc2oc([C@@H]3c4nc[nH]c4CCN3C(=O)c3nnc(-c4cnn(C)c4)o3)nc12 [Example 480, (S)-(5-(1-methyl-1H-pyrazol-4-yl)-1,3,4-oxadiazol-2-yl)(4-(4-methylbenzo[d]oxazol-2-yl)-6,7-dihydro-1H-imidazo[4,5-c]pyridin-5(4H)-yl)methanone]
1000 to 5000	CC(C)(O)c1nc(CF)c(C(=O)N2CCc3[nH]cnc3[C@@H]2c2nc3cc(F)ccc3o2)o1 [Example 212, (R)-(4-(5-fluorobenzo[d]oxazol-2-yl)-6,7-dihydro-1H-imidazo[4,5-c]pyridin-5(4H)-yl)(4-(fluoromethyl)-2-(2-hydroxypropan-2-yl)oxazol-5-yl)methanone]
≥ 5000	Nc1cn2ncc(C(=O)N3CCc4[nH]cnc4[C@@H]3c3nc4cc(F)ccc4o3)c2cc1Cl [Example 178, (R)-(6-amino-5-chloropyrazolo[1,5-a]pyridin-3-yl)(4-(5-fluorobenzo[d]oxazol-2-yl)-6,7-dihydro-1H-imidazo[4,5-c]pyridin-5(4H)-yl)methanone]
≤ 500	O=C(c1ccnn1C(F)F)N1CCc2[nH]cnc2[C@H]1c1nc2ccccc2o1 [Example 563, (S)-(4-(benzo[d]oxazol-2-yl)-6,7-dihydro-1H-imidazo[4,5-c]pyridin-5(4H)-yl)(1-(difluoromethyl)-1H-pyrazol-5-yl)methanone]
≥ 5000	Cc1nc([C@H](C)O)oc1C(=O)N1CCc2[nH]cnc2[C@@H]1c1nc2ccc(F)cc2o1 [Example 242, ((R)-4-(6-fluorobenzo[d]oxazol-2-yl)-6,7-dihydro-1H-imidazo[4,5-c]pyridin-5(4H)-yl)(2-((S)-1-hydroxyethyl)-4-methyloxazol-5-yl)methanone]
1000 to 5000	Cc1cccc2nc([C@H]3c4nc[nH]c4CCN3C(=O)c3nc(C(F)F)nn3C)oc12 [Example 614, (R)-(3-(difluoromethyl)-1-methyl-1H-1,2,4-triazol-5-yl)(4-(7-methylbenzo[d]oxazol-2-yl)-6,7-dihydro-1H-imidazo[4,5-c]pyridin-5(4H)-yl)methanone]
≤ 500	Cc1cccc2nc([C@@H]3c4nc[nH]c4CCN3C(=O)c3nnc(-c4ncccc4F)o3)oc12 [Example 858, (S)-(5-(3-fluoropyridin-2-yl)-1,3,4-oxadiazol-2-yl)(4-(7-methylbenzo[d]oxazol-2-yl)-6,7-dihydro-1H-imidazo[4,5-c]pyridin-5(4H)-yl)methanone]
1000 to 5000	CC(C)(O)c1ncc(C(=O)N2CCc3[nH]cnc3[C@@H]2c2nc3c(F)cccc3o2)o1 [Example 894, (R)-(4-(4-fluorobenzo[d]oxazol-2-yl)-6,7-dihydro-1H-imidazo[4,5-c]pyridin-5(4H)-yl)(2-(2-hydroxypropan-2-yl)oxazol-5-yl)methanone]
≤ 500	Cn1cc(-c2nc(C(F)(F)F)c(C(=O)N3CCc4[nH]cnc4[C@H]3c3nc4cccc(F)c4o3)o2)cn1 [Example 669, (S)-(4-(7-fluorobenzo[d]oxazol-2-yl)-6,7-dihydro-1H-imidazo[4,5-c]pyridin-5(4H)-yl)(2-(1-methyl-1H-pyrazol-4-yl)-4-(trifluoromethyl)oxazol-5-yl)methanone]
≤ 500	COc1cccc2nc([C@@H]3c4nc[nH]c4CCN3C(=O)c3ocnc3C(F)F)oc12 [Example 457, (S)-(4-(difluoromethyl)oxazol-5-yl)(4-(7-methoxybenzo[d]oxazol-2-yl)-6,7-dihydro-1H-imidazo[4,5-c]pyridin-5(4H)-yl)methanone]
≥ 5000	O=C(c1cccnc1)N1Cc2[nH]cnc2[C@H]1c1nc2ccccc2o1 [Example 927, (S)-(4-(benzo[d]oxazol-2-yl)-4,6-dihydropyrrolo[3,4-d]imidazol-5(1H)-yl)(pyridin-3-yl)methanone]

same assay, conditions: A375 cells expressing R408W PAH; 24 hrs with compound, then 20 μM sepiapterin and 800 μM 13C9,15N-Phenylalanine for 4 hours; 13C-Tyrosine by LC-MS; average where tested multiple times

SMILES	AC50 [nM]
Cc1cccc2nc(C3c4nc[nH]c4CCN3C(=O)c3ncnn3C)oc12 (stereo not drawn)	1000 to 5000
COC(C)(C)c1nc(C)c(C(=O)N2CCc3[nH]cnc3C2c2nc3cc(F)ccc3o2)o1 (stereo not drawn)	1000 to 5000
Cc1nnc(C(=O)N2CCc3[nH]cnc3C2c2nc3c(F)ccc(F)c3o2)o1 (stereo not drawn)	1000 to 5000
Cc1ccc2nc(C3c4nc[nH]c4CCN3C(=O)c3cnn4cc(CCN(C)C)ccc34)oc2c1 (stereo not drawn)	1000 to 5000
O=C(c1cnn2cc(N3CCOCC3)ccc12)N1CCc2[nH]cnc2C1c1nc2cc(F)ccc2o1 (stereo not drawn)	1000 to 5000
CC(C)(O)c1nnc(C(=O)N2CCc3[nH]cnc3C2c2nc3c(F)ccc(F)c3o2)o1 (stereo not drawn)	1000 to 5000
O=C(c1cn[nH]c1Cl)N1CCc2[nH]cnc2C1c1nc2cc(F)ccc2o1 (stereo not drawn)	1000 to 5000
CC1CN(C(=O)c2oc(C(C)(C)O)nc2C(F)F)C(c2nc3cc(F)ccc3o2)c2nc[nH]c21 (stereo not drawn)	1000 to 5000
CN(C)CCCOc1ccc2c(C(=O)N3CCc4[nH]cnc4C3c3nc4cc(F)ccc4o3)cnn2c1 (stereo not drawn)	1000 to 5000
O=C(c1cnco1)N1CCc2[nH]cnc2C1c1nc2cc(F)ccc2o1 (stereo not drawn)	≥ 5000
